Test results: ChEMBL document CHEMBL3797119, “Pharmacokinetic Study of Two Macrolide Antibiotic Oral Suspensions Using an Optimized Bioassay Procedure” (J Bioequivalence Bioavailab, 2010)

How the values were obtained:
Format in all cases: ADME, organism-based
Details in all cases: in vivo
Homo sapiens [1] = experiment: Ratio of AUC (0 to t) in healthy human (24 volunteers) at 500 mg, po test formulation of drug administered as single dose to AUC (0 to t) in healthy human (24 volunteers) at 500 mg, po reference formulation of drug administered as single dose
Homo sapiens [2] = experiment: First order inter-compartment transfer rate constant from central to peripheral compartment in healthy human (24 volunteers) at 500 mg, po test formulation of drug administered as single dose by two-compartmental open model
[3] = Clearance in healthy human (24 volunteers) at 500 mg, po test formulation of drug administered as single dose by two-compartmental open model
[4] = Half life in healthy human (24 volunteers) at 500 mg, po test formulation of drug administered as single dose
[5] = Half life in healthy human (24 volunteers) at 500 mg, po reference formulation of drug administered as single dose
[6] = Clearance in healthy human (24 volunteers) at 500 mg, po reference formulation of drug administered as single dose by two-compartmental open model
Homo sapiens [7] = experiment: Ratio of AUC (0 to infinity) in healthy human (24 volunteers) at 500 mg, po test formulation of drug administered as single dose to AUC (0 to t) in healthy human (24 volunteers) at 500 mg, po reference formulation of drug administered as single dose
[8] = Tmax in healthy human (24 volunteers) at 500 mg, po reference formulation of drug administered as single dose
[9] = Elimination rate constant from central compartment in healthy human (24 volunteers) at 500 mg, po test formulation of drug administered as single dose by two-compartmental open model
Homo sapiens [10] = experiment: Volume of distribution in healthy human (24 volunteers) at 500 mg, po test formulation of drug administered as single dose by two-compartmental open model
[11] = Elimination rate constant from central compartment in healthy human (24 volunteers) at 500 mg, po reference formulation of drug administered as single dose by two-compartmental open model
Homo sapiens [12] = experiment: First order inter-compartment transfer rate constant from peripheral to central compartment in healthy human (24 volunteers) at 500 mg, po reference formulation of drug administered as single dose by two-compartmental open model
Homo sapiens [13] = experiment: Ratio of Cmax in healthy human (24 volunteers) at 500 mg, po test formulation of drug administered as single dose to Cmax in healthy human (24 volunteers) at 500 mg, po reference formulation of drug administered as single dose
[14] = AUC (0 to t) in healthy human (24 volunteers) at 500 mg, po reference formulation of drug administered as single dose measured after 0.5 to 72 hrs; design: time upper 72 hr, dose 500 mg, time lower 0.5 hr, route oral
Homo sapiens [15] = experiment: First order inter-compartment transfer rate constant from peripheral to central compartment in healthy human (24 volunteers) at 500 mg, po test formulation of drug administered as single dose by two-compartmental open model
Homo sapiens [16] = experiment: First order inter-compartment transfer rate constant from central to peripheral compartment in healthy human (24 volunteers) at 500 mg, po reference formulation of drug administered as single dose by two-compartmental open model
Homo sapiens [17] = experiment: Volume of distribution in healthy human (24 volunteers) at 500 mg, po reference formulation of drug administered as single dose by two-compartmental open model
[18] = Cmax in healthy human (24 volunteers) at 500 mg, po test formulation of drug administered as single dose measured after 0.5 to 72 hrs; design: dose 500 mg, route oral
[19] = Cmax in healthy human (24 volunteers) at 500 mg, po reference formulation of drug administered as single dose measured after 0.5 to 72 hrs; design: dose 500 mg, route oral
[20] = AUC (0 to t) in healthy human (24 volunteers) at 500 mg, po test formulation of drug administered as single dose measured after 0.5 to 72 hrs; design: time upper 72 hr, time lower 0.5 hr, dose 500 mg, route oral
[21] = AUC (0 to infinity) in healthy human (24 volunteers) at 500 mg, po reference formulation of drug administered as single dose measured after 0.5 to 72 hrs; design: dose 500 mg, time infinity, route oral
[22] = AUC (0 to infinity) in healthy human (24 volunteers) at 500 mg, po test formulation of drug administered as single dose measured after 0.5 to 72 hrs; design: dose 500 mg, route oral, time infinity
[23] = Tmax in healthy human (24 volunteers) at 500 mg, po test formulation of drug administered as single dose
Homo sapiens [24] = experiment: Ratio of AUC (0 to infinity) in healthy human (24 volunteers) at 400 mg, po test formulation of drug administered as single dose to AUC (0 to t) in healthy human (24 volunteers) at 400 mg, po reference formulation of drug administered as single dose
[25] = AUC (0 to infinity) in healthy human (24 volunteers) at 400 mg, po reference formulation of drug administered as single dose measured after 0.5 to 10 hrs; design: dose 400 mg, route oral, time infinity
[26] = Tmax in healthy human (24 volunteers) at 400 mg, po test formulation of drug administered as single dose
[27] = Cmax in healthy human (24 volunteers) at 400 mg, po test formulation of drug administered as single dose measured after 0.5 to 10 hrs; design: dose 400 mg, route oral
Homo sapiens [28] = experiment: First order inter-compartment transfer rate constant from peripheral to central compartment in healthy human (24 volunteers) at 400 mg, po reference formulation of drug administered as single dose by two-compartmental open model
Homo sapiens [29] = experiment: Ratio of AUC (0 to t) in healthy human (24 volunteers) at 400 mg, po test formulation of drug administered as single dose to AUC (0 to t) in healthy human (24 volunteers) at 400 mg, po reference formulation of drug administered as single dose
[30] = Elimination rate constant from central compartment in healthy human (24 volunteers) at 400 mg, po test formulation of drug administered as single dose by two-compartmental open model
[31] = AUC (0 to t) in healthy human (24 volunteers) at 400 mg, po test formulation of drug administered as single dose measured after 0.5 to 10 hrs; design: time 0.5-10 hr, dose 400 mg, route oral
[32] = Clearance in healthy human (24 volunteers) at 400 mg, po test formulation of drug administered as single dose by two-compartmental open model
[33] = Tmax in healthy human (24 volunteers) at 400 mg, po reference formulation of drug administered as single dose
Homo sapiens [34] = experiment: Volume of distribution in healthy human (24 volunteers) at 400 mg, po test formulation of drug administered as single dose by two-compartmental open model
Homo sapiens [35] = experiment: Volume of distribution in healthy human (24 volunteers) at 400 mg, po reference formulation of drug administered as single dose by two-compartmental open model
Homo sapiens [36] = experiment: Ratio of Cmax in healthy human (24 volunteers) at 400 mg, po test formulation of drug administered as single dose to Cmax in healthy human (24 volunteers) at 400 mg, po reference formulation of drug administered as single dose
[37] = AUC (0 to infinity) in healthy human (24 volunteers) at 400 mg, po test formulation of drug administered as single dose measured after 0.5 to 10 hrs; design: dose 400 mg, time infinity, route oral
[38] = Half life in healthy human (24 volunteers) at 400 mg, po reference formulation of drug administered as single dose
[39] = Elimination rate constant from central compartment in healthy human (24 volunteers) at 400 mg, po reference formulation of drug administered as single dose by two-compartmental open model
Homo sapiens [40] = experiment: First order inter-compartment transfer rate constant from central to peripheral compartment in healthy human (24 volunteers) at 400 mg, po test formulation of drug administered as single dose by two-compartmental open model
Homo sapiens [41] = experiment: First order inter-compartment transfer rate constant from central to peripheral compartment in healthy human (24 volunteers) at 400 mg, po reference formulation of drug administered as single dose by two-compartmental open model
[42] = Half life in healthy human (24 volunteers) at 400 mg, po test formulation of drug administered as single dose
[43] = Clearance in healthy human (24 volunteers) at 400 mg, po reference formulation of drug administered as single dose by two-compartmental open model
Homo sapiens [44] = experiment: First order inter-compartment transfer rate constant from peripheral to central compartment in healthy human (24 volunteers) at 400 mg, po test formulation of drug administered as single dose by two-compartmental open model
[45] = Cmax in healthy human (24 volunteers) at 400 mg, po reference formulation of drug administered as single dose measured after 0.5 to 10 hrs; design: dose 400 mg, route oral
[46] = AUC (0 to t) in healthy human (24 volunteers) at 400 mg, po reference formulation of drug administered as single dose measured after 0.5 to 10 hrs; design: time lower 0.5 hr, dose 400 mg, time upper 10 hr, route oral

CC[C@@H]1OC(=O)[C@H](C)[C@@H](O[C@@H]2C[C@](C)(OC)[C@H](O)[C@@H](C)O2)[C@@H](C)[C@@H](O[C@@H]2O[C@H](C)C[C@H](N(C)C)[C@H]2O)[C@](C)(O)C[C@@H](C)CN(C)[C@H](C)[C@@H](O)[C@]1(C)O
Ratio AUC (Homo sapiens [1]): 0.95
K (Homo sapiens [2]): 0.419 h⁻¹
CL/F [3]: 139 mL/min/kg
half-life [4]: 25 h
half-life [5]: 25.2 h
CL/F [6]: 103 mL/min/kg
Ratio AUC (Homo sapiens [7]): 0.96
Tmax [8]: 2.08 h
k el [9]: 2.5e-05 s⁻¹
Vd (Homo sapiens [10]): 32.2 L/kg
k el [11]: 2.72e-05 s⁻¹
K (Homo sapiens [12]): 0.103 h⁻¹
Ratio (Homo sapiens [13]): 1
AUC(0-t) [14]: 8050 ng·h/mL
K (Homo sapiens [15]): 0.084 h⁻¹
K (Homo sapiens [16]): 0.405 h⁻¹
Vd (Homo sapiens [17]): 36.8 L/kg
Cmax [18]: 486 ng/mL
Cmax [19]: 488 ng/mL
AUC(0-t) [20]: 7580 ng·h/mL
AUC(0-inf) [21]: 8440 ng·h/mL
AUC(0-inf) [22]: 7990 ng·h/mL
Tmax [23]: 1.96 h

CC[C@H]1OC(=O)[C@H](C)[C@@H](O[C@H]2C[C@@](C)(OC)[C@@H](O)[C@H](C)O2)[C@H](C)[C@@H](O[C@@H]2O[C@H](C)C[C@H](N(C)C)[C@H]2O)[C@](C)(O)C[C@@H](C)C(=O)[C@H](C)[C@@H](O)[C@]1(C)O [ERYTHROMYCIN]
Ratio AUC (Homo sapiens [24]): 1.04
AUC(0-inf) [25]: 4790 ng·h/mL
Tmax [26]: 1.4 h
Cmax [27]: 1170 ng/mL
K (Homo sapiens [28]): 1.23 h⁻¹
Ratio AUC (Homo sapiens [29]): 1.03
k el [30]: 0.000229 s⁻¹
AUC(0-t) [31]: 4020 ng·h/mL
CL/F [32]: 225 mL/min/kg
Tmax [33]: 1.38 h
Vd (Homo sapiens [34]): 10.4 L/kg
Vd (Homo sapiens [35]): 8.8 L/kg
Ratio (Homo sapiens [36]): 1.07
AUC(0-inf) [37]: 4850 ng·h/mL
half-life [38]: 3.61 h
k el [39]: 0.000123 s⁻¹
K (Homo sapiens [40]): 2.26 h⁻¹
K (Homo sapiens [41]): 1.34 h⁻¹
half-life [42]: 3.64 h
CL/F [43]: 23.3 mL/min/kg
K (Homo sapiens [44]): 0.415 h⁻¹
Cmax [45]: 1120 ng/mL
AUC(0-t) [46]: 4010 ng·h/mL
